This is an account of results in patent US7572831B2, “Composition containing chalcone” (Angiolab, Inc., priority 2002, dated 2009).

Data set [1] concerns TPA-induced ear edema. Description: TPA-induced ear edema model. The data set is classed as in vivo, ICR mouse. As to conditions: FIG. 7.
The test system of a further data set is rat aortic rings. Description: Rat aortic ring angiogenesis assay. As to conditions: day 10; for Microvessel density: control 19.5±1.8. The data set is classed as cell-based, Sprague Dawley rats. The text has this: The effect of chalcone or its derivatives on angiogenesis was studied by culturing aortic explants in three-dimensional matrix gels according to the procedure of Kruger and Figg (Clinical Cancer Research 7:1867-1872, 2001). Thoracic aortas were excised from 8-week-old male Sprague Dawley rats and the fibroadipose tissue was removed. The aortas were sectioned into 1-mm-long cross-sections, rinsed with Human Endothelial-SFM (GIBCO), placed on the Matrigel-coated wells, covered with additional 50 ul Matrigel, and allowed to gel for more than 30 min at 37° C., 5% CO2. All the rings were cultured in Human Endothelial-SFM (GIBCO) supplemented with 200 ug/ml of ECGS (Endothelial Cell Growth Supplement, Sigma) as an angiogenesis inducer. Chalcone diluted with ethanol was added to the culture medium at final concentrations of 1 uM and 100 uM. 1% of ethanol only was added to the culture medium as a vehicle control. All assays were performed by using 5 aortic rings per sample. Aortic rings were photographed on day 10. The area of angiogenic sprouting was calculated using Image-Pro Plus software program (Media Cybernetics). Microvessel densities are reported in percent area.

For the next data set, the target named is T1, MMP-9 (Homo sapiens, UniProt P14780).
T1 construct: made in house; host or cells: Sf21 insect cells, baculovirus (pBlueBac4.5)
Description: MMP-9 spectrofluorometric enzyme activity assay. The data set is classed as biochemical. Conditions: 50 μM compound; read-out: MMP-9 activity inhibited. The procedure: MMP-1, MMP-2, MMP-9 and MMP-13 were cloned and prepared from insect cells (Sf21 insect cell) by using a Baculovirus system.
Each cDNA for corresponding MMPs was cloned to a pBlueBac4.5 transfer vector (Invitrogen, Cat no. V1995-20), and then transfected to Sf21 cells with a Bac-N-Blue Transfection Kit (Invitrogen, Cat no. K855-01). Sf21 cells were incubated with a TNM-FH (Sigma, St. Louis, Mo., U.S.A) media containing 10% fetal bovine serum at 27° C., then harvested and re-suspended at a concentration of 10^7 cell/Ml. The cell suspension was incubated with a virus containing the cloned gene for 1 hr at room temperature. Infected Sf21 cells were grown for 72 hrs and the medium was recovered, and the MMP was purified. MMP-2 (GENEBANK No. XM—048244) and MMP-9 (GENEBANK No. XM—009491) were recovered from a gelatin-sepharose affinity column (Sigma, G5384) by eluting with 5% DMSO-containing buffer. […]
As a control, 2 Ml of reaction buffer (50 mM Tricine, pH 7.5, 10 mM CaCl2, 200 mM NaCl) comprising DMSO, 10 nM of enzyme and 10 μM of substrate was prepared in a cuvette. Fluorescence intensity was measured for 5-10 min at room temperature with a spectrofluorometer.
50 μM Chalcone or its derivatives were added to a reaction buffer containing a substrate and enzyme, and fluorescence intensity was measured in the same manner.

Data set [2] has as its system TPA-induced ear edema. Description: TPA-induced ear edema model. The data set is classed as in vivo, ICR mouse. The procedure: To observe the anti-inflammatory effects of chalcone or its derivatives edema was induced in the ear by topical application of 10 ul of TPA (Tetradecanoylphorbol acetate) in acetone (2.5 ug/ear) to both the inner and outer surface of one ear of each 6-week-old ICR mouse. 5% of Chalcone or its derivatives diluted with acetone were applied separately to each ear topically immediately after TPA. The reference drug, indomethacin (0.5 mg/ear), was administered as a positive control. Ear thickness was measured before and 4 hours after treatment with the irritant using a micrometer (Mitutoyo Co.). Ear thickness was expressed as the mean of the difference between thickness before and after challenge. Inhibition ratio percentage of edema was expressed as the reduction in thickness with respect to the control treated only with TPA. As shown in FIG. 6 and Table 2, chalcone or its derivatives suppressed the TPA-induced ear edema.

Data set [3] can be described thus: Skin sensitization by human patch test. Type of data set: in vivo. Conditions: interpretation of skin average reactivity. The procedure: The effect of chalcone on skin sensitization was studied by general method of skin patch test. The skin patch test was done against human subjects of ten adults. Test patch (2 cm×2 cm) included 0.2 ml of cream containing 0.01%-1.0% chalcone. The patches were applied to the backs of subjects. The patch was removed after 48 hours or 96 hours, and the skin responses of subjects were recorded and evaluated as shown in Table 4. The skin average reactivity calculated by equation 1 was interpreted as the degree of skin sensitivity in Table 5. According to the skin patch test, chalcone was nonreactive to skin sensitization (Table 6).

T1 sequence (P14780 107-707 limits assumed): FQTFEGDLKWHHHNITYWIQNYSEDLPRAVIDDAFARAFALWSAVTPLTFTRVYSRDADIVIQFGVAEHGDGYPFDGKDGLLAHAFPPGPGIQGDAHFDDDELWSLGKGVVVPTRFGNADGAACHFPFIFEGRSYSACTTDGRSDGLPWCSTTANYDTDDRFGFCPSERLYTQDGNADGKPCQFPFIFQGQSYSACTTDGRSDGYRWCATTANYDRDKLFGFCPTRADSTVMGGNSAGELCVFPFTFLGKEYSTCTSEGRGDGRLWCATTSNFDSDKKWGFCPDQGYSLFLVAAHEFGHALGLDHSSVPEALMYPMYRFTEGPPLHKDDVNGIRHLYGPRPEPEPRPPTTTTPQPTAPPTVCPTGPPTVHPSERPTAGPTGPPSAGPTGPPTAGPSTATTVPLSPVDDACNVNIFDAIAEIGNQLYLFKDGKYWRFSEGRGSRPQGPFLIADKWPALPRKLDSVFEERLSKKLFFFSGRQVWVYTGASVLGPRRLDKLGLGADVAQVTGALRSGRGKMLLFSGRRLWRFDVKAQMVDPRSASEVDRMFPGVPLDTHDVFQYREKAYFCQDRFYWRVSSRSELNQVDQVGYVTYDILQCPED

As to `O=C(/C=C/c1ccccc1)c1ccccc1` [Chalcone], the “Dose dependence of anti-inflammatory activity” value in the data set with TPA-induced ear edema [1] is recorded as “dose dependent”. The Microvessel density was 18.5±1.2 percent area in the data set with rat aortic rings (1 uM) and 1.7±0.1 percent area in the data set with rat aortic rings (100 uM). Moreover, the inhibition at 1 µM in the data set on rat aortic rings (Rattus norvegicus, 240 h, 1 uM, read-out: Inhibition of microvessel formation compared to control) stood at 5.1%. In addition, the inhibition at 100 µM in the data set with rat aortic rings (Rattus norvegicus, 240 h, 100 uM, read-out: Inhibition of microvessel formation compared to control) stood at 91.3%. Besides, the inhibition at 50 µM on MMP-9 was roughly 76%. For the same compound, in the data set on TPA-induced ear edema [2] (topical 5% in acetone (indomethacin 0.5 mg/ear), 4 hours after TPA), the “Inhibition ratio (%) of ear edema” value is given as 69.3%. For the same compound, the “Δ Ear thickness (um ± S.D)” value with TPA-induced ear edema [2] (topical 5% in acetone (indomethacin 0.5 mg/ear), 4 hours after TPA, TPA control 176 ± 35) is 54 ± 22 um. Moreover, the “Relative potency among chalcone or its derivatives on ear edema” value in the data set with TPA-induced ear edema [2] (topical 5%, TPA-induced ear edema) was “greatest potency”. In data set [3], the “Result of skin patch test (degree of skin sensitivity)” value is given as “nonreactive (0.0-0.9)”.
